# Data reported in patent publication EP2326714B1, “METHOD FOR THE PRODUCTION OF A FEED ADDITIVE FOR THE OXYGEN-INDEPENDENT, ENZYMATIC DECOMPOSITION OF MYCOTOXINS, FEED ADDITIVE, AND USE THEREOF” (Erber Aktiengesellschaft, priority 2008, dated 2010).
# Legend:
# [1] = molecular target: T1, Fumonisin-Carboxylesterase FumD, Sequenz ID-Nr. 9 (fumD Gen Sequenz ID-Nr. 8), Sphingopyxis sp. Stamm DSM 16254, his-getaggt, in Pichia pastoris exprimiert (Sphingopyxis macrogoltabida, UniProt D2D3B6); experiment: Enzyme kinetics of fumonisin carboxylesterase (Michaelis-Menten, HPLC-MS/MS); format: biochemical; settings: substrate FB1; enzyme 0,33 ng/ml; Tris-Cl pH 8,0; 30 °C
# T1 construct: His tag; made in house; host or cells: Pichia pastoris (secreted, purified from the culture supernatant)
# T1 sequence (D2D3B6 whole entry): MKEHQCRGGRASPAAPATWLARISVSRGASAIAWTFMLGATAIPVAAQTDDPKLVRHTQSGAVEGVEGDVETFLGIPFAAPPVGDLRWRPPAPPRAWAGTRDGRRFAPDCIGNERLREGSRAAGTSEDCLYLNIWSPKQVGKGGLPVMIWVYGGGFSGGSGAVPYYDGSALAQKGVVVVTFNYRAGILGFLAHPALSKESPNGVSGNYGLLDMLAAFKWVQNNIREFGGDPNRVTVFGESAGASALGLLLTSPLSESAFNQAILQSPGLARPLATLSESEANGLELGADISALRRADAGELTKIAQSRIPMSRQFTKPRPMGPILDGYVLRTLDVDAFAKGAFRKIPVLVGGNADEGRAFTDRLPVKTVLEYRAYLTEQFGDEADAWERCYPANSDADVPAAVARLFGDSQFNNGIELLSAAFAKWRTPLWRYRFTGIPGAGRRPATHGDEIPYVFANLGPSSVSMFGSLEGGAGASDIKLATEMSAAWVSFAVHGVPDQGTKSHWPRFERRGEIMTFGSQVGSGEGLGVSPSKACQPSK
# Method: (§1) Das fumD Gen (Sequenz ID-Nr. 8), welches eine Fumonisin-Carboxylesterase codiert, wurde kloniert und in Pichia pastoris unter Verwendung von Standardverfahren exprimiert. Das his-getaggte Enzym wurde rückgewonnen und aus der überstehenden Lösung der Kultur durch Affinitätschromatographie gereinigt. Die Enzymkonzentration wurde bestimmt und die enzymkinetischen Parameter wurden mit sieben unterschiedlichen Substratkonzentrationen im Bereich zwischen 50 µg bis 25 mg FB1 pro Liter und einer Enzymkonzentration von 0,33 ng/ml bestimmt. Die Reaktionen wurden in 20 mM Tris-Cl (pH 8,0) Puffer mit 0,1 mg/ml Rinderserumalbumin gepuffert und bei 30 °C inkubiert. Proben wurden nach 0, 30, 60 120 und 240 Minuten Inkubation genommen und durch HPLC-MS/MS analysiert. Fumonisin B1 (FB1) und hydrolysiertes Fumonisin B1 wurden quantifiziert basierend auf einer Kalibrierung mit den gereinigten Referenzsubstanzen und einem vollständig ^13C markierten, internen FB1 Standard.
# (§2) Fig. 2 zeigt die Michaelis-Menten-Kurve für die Transformation von Fumonisin B1 (FB1) durch Fumonisin-Carboxylesterase FumD, welche bei einer Enzymkonzentration von 0,33 ng/ml in Tris-Cl-Puffer (pH 8,0) bestimmt wurde, wobei anfängliche Enzymgeschwindigkeiten gegen die Substratkonzentration aufgetragen wurden. Die Michaelis-Menten-Kurve zeigt einen Abfall bei höheren Substratkonzentrationen, da die Enzymgeschwindigkeit basierend auf dem Produkt, d.h. hydrolysierter FB1-Bildung berechnet wurde. Da hydrolysiertes FB1 aus FB1 in einer zweistufigen Reaktion über partiell hydrolysiertes FB1 mit lediglich einer Tricarballylsäure-Seitenkette, die zurückbehalten wurde, und einer Seitenkette ausgebildet wird, die abgespalten wurde, war die Endproduktbildung bei hohen Substratkonzentrationen verzögert. Die Michaelis-Menten-Konstante KM wurde als 0,90 µmol/l berechnet, was 650 ppb äquivalent ist, und die Umwandlungszahl war 900 pro Sekunde.
# Absetzferkel = experiment: Feeding trial with piglets (fumonisin B1 contaminated feed, positive control); format: in vivo, Ferkel (ÖHYB); settings: 4 - 5,5 ppm Fumonisin B1 in feed, no enzyme
# Source text: Der Versuch wurde in einem Versuchsstall mit 12 Buchten für jeweils 10 Tiere durchgeführt. Der Stall war ausgestattet mit Spaltenboden, Schalentränkern und einem computergesteuerten Fütterungssystem. Die Automaten waren entlang der Buchtenwände angeordnet. Das Stallklima wurde täglich automatisch aufgezeichnet und die Temperatur nach den Standardempfehlungen zur Ferkelaufzucht eingestellt.
# 120 gemischt-geschlechtliche Absetzferkel (Alter: ca. 4 Wochen, durchschnittliches Einstellgewicht 8,21 kg) wurden für diesen Versuch eingesetzt. Jedes Ferkel wurde mit einer Ohrmarke versehen und einzeln gewogen. Die 120 Ferkel wurden auf 12 Buchten zufällig verteilt. Alle Ferkel entstammten dem österreichischen Zuchtprogramm ÖHYB (= (Edelschwein x Landrasse) x Pietrain).
# Direkt nach dem Absetzen wurden die Ferkel für 2 Tage mit einem Starterfutter gefüttert, nach dieser Eingewöhnungsphase erfolgte die Umstellung auf das Versuchsfutter. Die Fütterung erfolgte 2-phasig: Absetzphase Tag 1 - 14, Aufzuchtphase Tag 15 - 42. Das Versuchsfutter wurde buchtenindividuell über die Spotmix-Fütterungsanlage gemischt und je nach Anzahl der Ferkel, Gewichtsentwicklung und Futterverzehr zweimal täglich trocken zugeteilt. Wasser stand zur Aufnahme ad libitum zur Verfügung. Die 12 Buchten wurden in vier verschiedene Applikationsgruppen zu je drei Wiederholungen geteilt und erhielten die folgenden Einmischungen ins oben beschriebene Futter: […]
# [2] = system: CCCC[C@@H](C)[C@@H](OC(=O)C[C@@H](CC(=O)O)C(=O)O)[C@H](C[C@@H](C)C[C@H](O)CCCC[C@@H](O)C[C@H](O)[C@H](C)N)OC(=O)C[C@@H](CC(=O)O)C(=O)O; experiment: Enzyme kinetics of fumonisin carboxylesterase (Michaelis-Menten, HPLC-MS/MS); format: biochemical, Sphingopyxis sp.
# Method: as §1, §2
Compound,Umwandlungszahl [1],"Ausfälle (Absetzferkel; 30 piglets, 42 days)","Endgewicht (Durchschnitt, kg) (Absetzferkel; 30 piglets, 42 days, negative control 26,82)",respiratorische Probleme (Absetzferkel; all other groups appeared healthy),"Km ([2]; other: same KM expressed in ppb, pH 8.0, 30.0 °C)","Km ([2]; other: substrate FB1, 50 µg to 25 mg per litre, enzyme 0,33 ng/ml, 20 mM Tris-Cl pH 8,0, 0,1 mg/ml BSA, 30 °C, rate based on formation of hydrolysed FB1)"
CCCC[C@@H](C)[C@@H](OC(=O)C[C@@H](CC(=O)O)C(=O)O)[C@H](C[C@@H](C)C[C@H](O)CCCC[C@@H](O)C[C@H](O)[C@H](C)N)OC(=O)C[C@@H](CC(=O)O)C(=O)O [Fumonisin B1],900 pro Sekunde,1,"24,77 kg",bei fast der Hälfte der Tiere respiratorische Probleme beobachtet,,
"Fumonisin-Carboxylesterase FumD, Sequenz ID-Nr. 9 (fumD Gen Sequenz ID-Nr. 8), Sphingopyxis sp. Stamm DSM 16254, his-getaggt, in Pichia pastoris exprimiert (Sphingopyxis macrogoltabida)",,,,,650 ppb,"0,90 µmol/l"
